Tests used:
[1] = target: Matrix metalloproteinase-9 (Homo sapiens, UniProt P14780); assay type: cell-based;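 further: inhibition of isolated MMP-9 enzyme activity toward a synthetic peptide substrate, from the DrugMatrix protease screening panel; in other assays of this panel Not Active means under 50% inhibition at 10 µM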
[2] = target: 5-hydroxytryptamine receptor 6 (Homo sapiens, UniProt P50406); assay type: cell membranes, HeLa, Membrane; conditions: hela; further: in other assays of this panel Not Active means under 50% inhibition at 10 µM
5-hydroxytryptamine receptor 6, sequence (P50406 whole entry): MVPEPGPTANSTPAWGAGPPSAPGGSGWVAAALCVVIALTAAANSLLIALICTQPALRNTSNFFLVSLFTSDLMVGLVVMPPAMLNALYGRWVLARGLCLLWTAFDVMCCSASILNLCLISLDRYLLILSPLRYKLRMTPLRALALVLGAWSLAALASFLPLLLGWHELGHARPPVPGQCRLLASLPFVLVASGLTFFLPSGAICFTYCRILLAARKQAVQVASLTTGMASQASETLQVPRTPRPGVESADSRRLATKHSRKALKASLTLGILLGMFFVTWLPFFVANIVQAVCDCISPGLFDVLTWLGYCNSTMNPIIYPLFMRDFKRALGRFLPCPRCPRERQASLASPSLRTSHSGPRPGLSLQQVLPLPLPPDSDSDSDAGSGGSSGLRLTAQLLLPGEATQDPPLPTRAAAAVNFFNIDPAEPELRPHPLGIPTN

[3] = target: Receptor tyrosine-protein kinase erbB-2 (Homo sapiens, UniProt P04626); assay type: cell-based; conditions: insect cells;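 further: inhibition of HER2 kinase enzyme activity, measured with Poly(Glu:Tyr) as the phosphorylation substrate; in other assays of this panel Not Active means under 50% inhibition at 10 µM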
Receptor tyrosine-protein kinase erbB-2, sequence (P04626 whole entry): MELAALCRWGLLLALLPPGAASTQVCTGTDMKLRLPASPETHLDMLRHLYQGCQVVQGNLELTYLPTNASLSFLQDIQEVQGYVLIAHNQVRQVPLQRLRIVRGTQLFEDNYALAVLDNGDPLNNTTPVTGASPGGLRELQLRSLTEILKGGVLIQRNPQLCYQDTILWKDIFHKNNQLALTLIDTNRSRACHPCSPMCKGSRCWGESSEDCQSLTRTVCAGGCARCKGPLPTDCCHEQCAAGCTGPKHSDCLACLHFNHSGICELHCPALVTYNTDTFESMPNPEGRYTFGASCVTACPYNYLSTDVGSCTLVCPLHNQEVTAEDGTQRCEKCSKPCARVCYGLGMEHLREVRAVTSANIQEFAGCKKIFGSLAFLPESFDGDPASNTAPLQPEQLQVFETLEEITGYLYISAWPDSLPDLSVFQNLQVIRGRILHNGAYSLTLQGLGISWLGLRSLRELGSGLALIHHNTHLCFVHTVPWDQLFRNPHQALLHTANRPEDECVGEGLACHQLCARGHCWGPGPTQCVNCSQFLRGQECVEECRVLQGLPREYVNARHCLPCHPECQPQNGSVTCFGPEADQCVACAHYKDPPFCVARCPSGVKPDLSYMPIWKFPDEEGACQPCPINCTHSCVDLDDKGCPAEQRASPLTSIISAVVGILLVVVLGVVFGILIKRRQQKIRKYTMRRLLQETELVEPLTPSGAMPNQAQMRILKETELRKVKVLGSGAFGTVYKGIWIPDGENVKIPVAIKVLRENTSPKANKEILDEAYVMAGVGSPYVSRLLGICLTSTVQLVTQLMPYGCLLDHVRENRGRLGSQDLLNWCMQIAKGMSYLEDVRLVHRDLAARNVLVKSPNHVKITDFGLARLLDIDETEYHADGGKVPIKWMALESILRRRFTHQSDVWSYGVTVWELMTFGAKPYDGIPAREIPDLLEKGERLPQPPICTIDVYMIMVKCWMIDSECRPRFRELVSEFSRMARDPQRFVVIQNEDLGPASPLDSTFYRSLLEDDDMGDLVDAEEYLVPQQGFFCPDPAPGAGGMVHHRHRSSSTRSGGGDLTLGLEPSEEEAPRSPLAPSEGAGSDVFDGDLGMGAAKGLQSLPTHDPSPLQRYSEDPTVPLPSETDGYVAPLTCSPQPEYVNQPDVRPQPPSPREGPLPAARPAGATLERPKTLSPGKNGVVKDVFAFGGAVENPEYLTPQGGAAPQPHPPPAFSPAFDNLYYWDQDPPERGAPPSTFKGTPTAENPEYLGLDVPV

[4] = target: T1, Receptor-type tyrosine-protein phosphatase C (Homo sapiens, UniProt P08575); parameters: species or system Escherichia coli;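 further: inhibition of CD45 enzyme activity measured using DiFMUP as substrate; in other assays of this panel Not Active means under 50% inhibition at 10 µM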
T1 sequence (P08575 whole entry): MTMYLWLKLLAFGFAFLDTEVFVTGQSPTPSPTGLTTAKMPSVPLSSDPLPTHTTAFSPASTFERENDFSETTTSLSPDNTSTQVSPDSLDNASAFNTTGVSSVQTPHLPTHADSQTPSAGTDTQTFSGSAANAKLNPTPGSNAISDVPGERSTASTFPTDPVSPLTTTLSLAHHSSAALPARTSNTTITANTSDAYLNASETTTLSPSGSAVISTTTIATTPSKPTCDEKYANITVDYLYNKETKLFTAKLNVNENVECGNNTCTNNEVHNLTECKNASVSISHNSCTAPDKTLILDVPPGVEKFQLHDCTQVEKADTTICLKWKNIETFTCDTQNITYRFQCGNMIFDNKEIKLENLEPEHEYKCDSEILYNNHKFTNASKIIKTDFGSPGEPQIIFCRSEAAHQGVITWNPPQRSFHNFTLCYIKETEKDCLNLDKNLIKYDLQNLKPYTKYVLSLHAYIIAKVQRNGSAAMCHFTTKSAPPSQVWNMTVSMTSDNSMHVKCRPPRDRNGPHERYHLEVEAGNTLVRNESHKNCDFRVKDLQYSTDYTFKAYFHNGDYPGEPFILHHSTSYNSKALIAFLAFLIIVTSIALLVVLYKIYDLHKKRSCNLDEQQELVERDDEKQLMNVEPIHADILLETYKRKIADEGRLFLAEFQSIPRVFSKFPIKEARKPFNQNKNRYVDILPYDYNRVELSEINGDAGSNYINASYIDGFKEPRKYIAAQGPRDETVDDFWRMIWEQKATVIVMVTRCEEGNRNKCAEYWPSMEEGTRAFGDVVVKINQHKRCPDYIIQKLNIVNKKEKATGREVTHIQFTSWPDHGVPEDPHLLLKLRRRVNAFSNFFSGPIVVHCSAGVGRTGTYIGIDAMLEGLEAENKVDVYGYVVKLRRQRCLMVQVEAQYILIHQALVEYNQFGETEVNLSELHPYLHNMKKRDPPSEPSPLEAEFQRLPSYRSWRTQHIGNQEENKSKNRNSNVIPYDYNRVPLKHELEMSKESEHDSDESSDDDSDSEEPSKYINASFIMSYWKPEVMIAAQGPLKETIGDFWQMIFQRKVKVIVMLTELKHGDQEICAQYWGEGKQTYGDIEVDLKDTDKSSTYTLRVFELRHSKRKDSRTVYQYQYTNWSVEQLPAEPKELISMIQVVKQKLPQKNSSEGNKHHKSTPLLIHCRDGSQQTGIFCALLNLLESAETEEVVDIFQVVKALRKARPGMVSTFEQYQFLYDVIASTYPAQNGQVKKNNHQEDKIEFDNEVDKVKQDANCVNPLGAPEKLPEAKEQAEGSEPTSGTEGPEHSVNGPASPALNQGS

Adenosine receptor A2a = Adenosine receptor A2a (Homo sapiens, UniProt P29274); test: DRUGMATRIX: Adenosine A2A radioligand binding (ligand: […]); assay type: cell membranes, HEK293, Membrane; conditions: hek293; Not Active = under 50% inhibition at 10 µM
Adenosine receptor A2a, sequence (P29274 whole entry): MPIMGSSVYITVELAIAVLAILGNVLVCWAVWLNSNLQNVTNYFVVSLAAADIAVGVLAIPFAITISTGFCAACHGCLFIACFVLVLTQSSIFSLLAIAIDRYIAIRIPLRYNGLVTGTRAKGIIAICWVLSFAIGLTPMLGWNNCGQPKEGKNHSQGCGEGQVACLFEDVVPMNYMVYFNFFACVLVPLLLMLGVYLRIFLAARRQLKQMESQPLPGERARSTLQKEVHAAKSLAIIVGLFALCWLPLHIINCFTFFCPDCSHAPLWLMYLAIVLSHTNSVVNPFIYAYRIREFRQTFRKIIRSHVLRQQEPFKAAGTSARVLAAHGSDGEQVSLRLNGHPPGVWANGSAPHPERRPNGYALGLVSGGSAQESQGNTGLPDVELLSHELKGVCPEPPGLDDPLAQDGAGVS

[5] = target: T2, C-C chemokine receptor type 4 (Homo sapiens, UniProt P51679); assay type: cell membranes, Chem-1, Membrane; conditions: chem-1; further: in other assays of this panel Not Active means under 50% inhibition at 10 µM
T2 sequence (P51679 whole entry): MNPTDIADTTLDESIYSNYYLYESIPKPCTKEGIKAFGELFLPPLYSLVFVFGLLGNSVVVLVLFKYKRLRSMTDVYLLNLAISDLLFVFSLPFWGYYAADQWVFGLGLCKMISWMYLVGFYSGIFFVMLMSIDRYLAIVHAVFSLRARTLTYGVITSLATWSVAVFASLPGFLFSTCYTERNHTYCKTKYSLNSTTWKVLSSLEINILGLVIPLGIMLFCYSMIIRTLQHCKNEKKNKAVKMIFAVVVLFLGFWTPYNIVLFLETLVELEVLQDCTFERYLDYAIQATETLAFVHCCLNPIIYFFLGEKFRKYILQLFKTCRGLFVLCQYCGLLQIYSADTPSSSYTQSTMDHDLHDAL

Vasopressin V1a receptor = Vasopressin V1a receptor (Homo sapiens, UniProt P37288); assay type: cell membranes, Membrane; conditions: hek293; further: in other assays of this panel Not Active means under 50% inhibition at 10 µM
Vasopressin V1a receptor, sequence (P37288 whole entry): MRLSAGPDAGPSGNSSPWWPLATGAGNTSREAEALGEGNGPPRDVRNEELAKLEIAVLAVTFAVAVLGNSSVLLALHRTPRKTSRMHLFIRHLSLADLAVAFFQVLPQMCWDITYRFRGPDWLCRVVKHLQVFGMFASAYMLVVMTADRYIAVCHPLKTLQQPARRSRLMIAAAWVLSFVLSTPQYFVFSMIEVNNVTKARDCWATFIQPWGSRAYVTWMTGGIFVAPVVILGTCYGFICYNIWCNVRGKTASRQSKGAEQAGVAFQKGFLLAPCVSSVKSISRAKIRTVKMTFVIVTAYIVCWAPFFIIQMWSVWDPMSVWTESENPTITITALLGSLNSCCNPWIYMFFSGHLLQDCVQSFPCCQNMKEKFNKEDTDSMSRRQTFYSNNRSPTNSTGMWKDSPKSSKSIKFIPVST

Nitric oxide synthase 1 = Nitric oxide synthase 1 (Rattus norvegicus, UniProt P29476); assay type: tissue-based, Cerebellum; further: in other assays of this panel Not Active means under 50% inhibition at 10 µM
Nitric oxide synthase 1, sequence (P29476 whole entry): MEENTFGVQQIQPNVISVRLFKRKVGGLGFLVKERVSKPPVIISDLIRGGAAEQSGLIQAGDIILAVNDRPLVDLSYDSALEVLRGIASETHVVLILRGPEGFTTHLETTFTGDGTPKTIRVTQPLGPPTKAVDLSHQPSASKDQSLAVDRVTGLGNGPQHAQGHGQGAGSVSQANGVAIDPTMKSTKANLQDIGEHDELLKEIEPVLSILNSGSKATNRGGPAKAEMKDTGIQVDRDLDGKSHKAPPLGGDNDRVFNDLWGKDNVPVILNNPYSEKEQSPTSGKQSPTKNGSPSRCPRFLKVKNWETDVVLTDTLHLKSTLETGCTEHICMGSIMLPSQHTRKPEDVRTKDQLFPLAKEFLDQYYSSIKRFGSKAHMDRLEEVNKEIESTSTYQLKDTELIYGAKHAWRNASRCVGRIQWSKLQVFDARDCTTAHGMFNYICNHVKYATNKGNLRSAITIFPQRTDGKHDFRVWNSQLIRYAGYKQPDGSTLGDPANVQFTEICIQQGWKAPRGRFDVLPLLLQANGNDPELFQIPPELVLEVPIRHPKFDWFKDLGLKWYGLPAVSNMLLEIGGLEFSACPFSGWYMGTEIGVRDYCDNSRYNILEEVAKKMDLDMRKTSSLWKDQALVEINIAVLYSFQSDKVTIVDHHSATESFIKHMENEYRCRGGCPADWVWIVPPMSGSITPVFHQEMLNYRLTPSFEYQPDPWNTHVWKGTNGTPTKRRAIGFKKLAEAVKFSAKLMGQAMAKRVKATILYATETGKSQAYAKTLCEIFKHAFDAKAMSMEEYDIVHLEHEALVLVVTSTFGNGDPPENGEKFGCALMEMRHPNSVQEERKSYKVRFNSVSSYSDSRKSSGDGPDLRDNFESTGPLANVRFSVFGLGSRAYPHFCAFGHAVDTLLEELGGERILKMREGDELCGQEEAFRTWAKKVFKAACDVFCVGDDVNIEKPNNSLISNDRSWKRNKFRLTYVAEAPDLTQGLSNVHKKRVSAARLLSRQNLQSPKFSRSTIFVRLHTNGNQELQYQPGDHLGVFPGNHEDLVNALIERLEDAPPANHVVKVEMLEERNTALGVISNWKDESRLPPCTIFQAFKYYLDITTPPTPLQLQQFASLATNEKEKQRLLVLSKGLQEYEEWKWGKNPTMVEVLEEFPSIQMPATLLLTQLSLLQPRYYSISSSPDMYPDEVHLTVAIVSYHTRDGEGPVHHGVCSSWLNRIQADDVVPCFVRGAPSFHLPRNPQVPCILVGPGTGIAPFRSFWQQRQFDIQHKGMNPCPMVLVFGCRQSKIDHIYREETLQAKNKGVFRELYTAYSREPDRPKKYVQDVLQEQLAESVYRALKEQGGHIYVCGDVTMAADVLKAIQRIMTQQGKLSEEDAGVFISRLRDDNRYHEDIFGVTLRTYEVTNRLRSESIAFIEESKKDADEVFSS

Measured: IC50

Matrix metalloproteinase-9, sequence (P14780 whole entry): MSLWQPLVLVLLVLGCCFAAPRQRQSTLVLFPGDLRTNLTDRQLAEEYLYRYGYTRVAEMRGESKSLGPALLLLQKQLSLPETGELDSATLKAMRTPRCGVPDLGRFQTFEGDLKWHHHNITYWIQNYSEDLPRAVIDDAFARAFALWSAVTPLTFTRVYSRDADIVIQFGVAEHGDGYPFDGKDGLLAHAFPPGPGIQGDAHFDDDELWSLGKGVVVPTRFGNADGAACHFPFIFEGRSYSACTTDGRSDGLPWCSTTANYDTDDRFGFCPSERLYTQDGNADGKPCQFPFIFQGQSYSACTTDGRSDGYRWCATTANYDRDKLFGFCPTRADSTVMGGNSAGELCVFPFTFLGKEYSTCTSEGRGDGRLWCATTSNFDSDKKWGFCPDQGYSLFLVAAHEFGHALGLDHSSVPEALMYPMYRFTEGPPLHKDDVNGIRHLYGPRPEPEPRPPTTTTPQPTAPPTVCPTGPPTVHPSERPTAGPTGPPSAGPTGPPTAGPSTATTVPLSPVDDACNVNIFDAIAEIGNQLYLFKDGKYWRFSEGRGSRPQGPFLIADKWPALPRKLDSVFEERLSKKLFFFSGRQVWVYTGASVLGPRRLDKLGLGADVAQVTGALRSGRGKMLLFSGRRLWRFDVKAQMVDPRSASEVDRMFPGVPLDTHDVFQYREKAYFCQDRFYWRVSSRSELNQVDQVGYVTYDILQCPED

c1ccc(Cn2ccnc2)cc1
Not Active: all assays above

C[C@H]1C[C@H]2[C@@H]3CCC4=CC(=O)C=C[C@]4(C)[C@@]3(F)[C@@H](O)C[C@]2(C)[C@@]1(O)C(=O)CO [BETAMETHASONE]
Not Active: all assays above

Nc1nc(N)c2nc(CNc3ccc(C(=O)N[C@@H](CCC(=O)O)C(=O)O)cc3)cnc2n1 [AMINOPTERIN]
Not Active: all assays above

CC(=O)Nc1ccc2c(c1)Cc1ccccc1-2 [2-ACETYLAMINOFLUORENE]
Not Active: all assays above

C=C(Cl)Cl [1,1-DICHLOROETHENE]
Not Active: all assays above

C#C[C@]1(O)CC[C@H]2[C@@H]3CCC4=CC(=O)CC[C@@H]4[C@H]3CC[C@@]21C [NORETHINDRONE]
Not Active: all assays above

CC[C@H]1OC(=O)[C@H](C)[C@@H](O[C@H]2C[C@@](C)(OC)[C@@H](O)[C@H](C)O2)[C@H](C)[C@@H](O[C@@H]2O[C@H](C)C[C@H](N(C)C)[C@H]2O)[C@](C)(O)C[C@@H](C)C(=O)[C@H](C)[C@@H](O)[C@]1(C)O [ERYTHROMYCIN]
Not Active: all assays above

c1ccc2c(c1)Nc1ccccc1S2 [PHENOTHIAZINE]
Not Active: all assays above

C[C@H](C(=O)O)c1ccc2oc(-c3ccc(F)cc3)nc2c1 [FLUNOXAPROFEN]
Not Active: all assays above

CC1(COc2ccc(CC3SC(=O)NC3=O)cc2)CCCCC1 (configuration not stated) [CIGLITAZONE]
Not Active: all assays above

C=CCN1CC[C@]23c4c5ccc(O)c4O[C@H]2/C(=N/N=C2\CC[C@@]4(O)[C@H]6Cc7ccc(O)c8c7[C@@]4(CCN6CC=C)[C@H]2O8)CC[C@@]3(O)[C@H]1C5 [NALOXONAZINE]
Not Active: all assays above

C[N+](C)(C)CCOP(=O)([O-])OC[C@H](O)CO
Not Active: all assays above

CCC1(c2ccccc2)C(=O)NC(=O)NC1=O [PHENOBARBITAL]
Not Active: all assays above

O=C(O)COC(=O)Cc1ccccc1Nc1c(Cl)cccc1Cl [ACECLOFENAC]
Not Active: all assays above
